# Reference: the supplement of paper PMC11208160
# Assay: recombinant barcode read abundance after kanamycin selection (control-corrected) (log10(CPM+1)); higher = more efficient recombination; sequences stand for … in AGTGCAGAGAAAATCGGCCAGTTTTCTCTGCCTGCAGTCCGCATGCCGT…AGATTTATGCAGCGGACTGCCTTTCTCCCAAAGTGATAAACCGGACAGTATCATGGACCGGTTTTCCCGGTAATCCGTATTTGCAAGGTTGGTTTCACT; site = the 11-nt target
# Procedure, shortened: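 Pooled E. coli screen pairing targets with IS621 bridge RNA target-binding loops. Each oligo (promoter, target, barcode, J23119-driven first 104 bridge RNA bases) was Gibson-cloned into a vector with the remaining 73 bp and T7-inducible recombinase, then co-electroporated with a donor plasmid. Two replicates each were plated on chloramphenicol/ampicillin LB agar (control) or chloramphenicol/ampicillin/kanamycin with 0.1 mM IPTG. Recombination efficiency is recombinant-junction barcode counts as CPM, averaged, control-corrected, reported as log10(CPM+1).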
# 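Further: IS621 recombinase and bridge RNA in Escherichia coli cells.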
row,Sequence,recombinant barcode read abundance (log10)
1,GTAGCGACTTGGGTTCTAACCTGTTGCCT (site GTAGCGACTAG),1.43
2,GTAGGAACTTGGGTTCTAACCTGTTGCTG (site CGGCTGTCTAG),0.0122
3,GTAGGAACTTGGGTTCTAACCTGTTGCTG (site GTAGGAACTCA),2.54
4,GTAGGGACTTGGGTTCTAACCTGTTGCCG (site AGCCCTTCTAA),0.192
5,GTAGGGACTTGGGTTCTAACCTGTTGCCG (site GTAGGGACTCG),2.47
6,GTAGTACCTTGGGTTCTAACCTGTTGCCT (site GTAGTAACTAG),0.0694
7,GTAGTACCTTGGGTTCTAACCTGTTGCCT (site GTAGTACCTAG),1.73
8,GTAGTACCTTGGGTTCTAACCTGTTGCCT (site GTAGTAGCTAG),0.247
9,GTAGTACCTTGGGTTCTAACCTGTTGCCT (site GTAGTATCTAG),0.545
10,GTAGTCCCTTGGGTTCTAACCTGTTGCCT (site GAAGTCTCTAG),0.118
11,GTAGTCCCTTGGGTTCTAACCTGTTGCCT (site GTAGTCCCTAG),2.06
12,GTAGTGTCTTGGGTTCTAACCTGTTGCTA (site CTAGTGTCTTA),1.61
13,GTAGTGTCTTGGGTTCTAACCTGTTGCTA (site GTAGTGTCTTA),2.37
14,GTATCAACTTGGGTTCTAACCTGTTGCCT (site GTATCAACTAG),0.35
15,GTATCAACTTGGGTTCTAACCTGTTGCCT (site GTATCACCTAG),0.0908
16,GTATCAACTTGGGTTCTAACCTGTTGCCT (site GTATCAGCTAG),0.0211
17,GTATCAACTTGGGTTCTAACCTGTTGCCT (site GTATCATCTAG),0
18,GTATCACCTTGGGTTCTAACCTGTTGCCT (site GTATCAACTAG),0.19

row,Sequence,recombinant barcode read abundance (log10)
1,GTATCACCTTGGGTTCTAACCTGTTGCCT (site GTATCACCTAG),1.44
2,GTATCACCTTGGGTTCTAACCTGTTGCCT (site GTATCAGCTAG),0.187
3,GTATCACCTTGGGTTCTAACCTGTTGCCT (site GTATCATCTAG),0.0641
4,GTATGACCTTGGGTTCTAACCTGTTGCCT (site GTATGAACTAG),0.0455
5,GTATGACCTTGGGTTCTAACCTGTTGCCT (site GTATGACCTAG),1.86
6,GTATGACCTTGGGTTCTAACCTGTTGCCT (site GTATGAGCTAG),0.0609
7,GTATGACCTTGGGTTCTAACCTGTTGCCT (site GTATGATCTAG),0.217
8,GTATGAGCTTGGGTTCTAACCTGTTGCCT (site GTATGAACTAG),0.475
9,GTATGAGCTTGGGTTCTAACCTGTTGCCT (site GTATGACCTAG),0.0478
10,GTATGAGCTTGGGTTCTAACCTGTTGCCT (site GTATGAGCTAG),1.5
11,GTATGAGCTTGGGTTCTAACCTGTTGCCT (site GTATGATCTAG),0.135
12,GTATGCCCTTGGGTTCTAACCTGTTGCCT (site GTATGCCCTAG),1.38
13,GTATGCCCTTGGGTTCTAACCTGTTGCCT (site GTGGGCCCTAG),0
14,GTATGGTCTTGGGTTCTAACCTGTTGCGT (site GTATCGTCTAG),0.0442
15,GTATGGTCTTGGGTTCTAACCTGTTGCGT (site GTATGGTCTAC),2.98
16,GTATGTACTTGGGTTCTAACCTGTTGCAT (site GTATGATCTAT),0.206
17,GTATGTACTTGGGTTCTAACCTGTTGCAT (site GTATGTACTAT),0.435
18,GTCAACTCTTGGGTTCTAACCTGTTGCCT (site GTAAACTCTAG),0.0267
